Reference: PubChem BioAssay (NCI)
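At the GI50, growth is halved. TGI is the concentration that stops growth completely.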

What was measured:
Experiment in all cases: inhibition of tumour cell growth, NCI panel, 384-well format
DU-145 prostate = tested on: DU-145 prostate
RXF 393 renal = tested on: RXF 393 renal
M14 melanoma = tested on: M14 melanoma
HCT-15 colon = tested on: HCT-15 colon
SF-539 CNS = tested on: SF-539 CNS
U251 glioblastoma = tested on: U251 glioblastoma
OVCAR-3 ovarian = tested on: OVCAR-3 ovarian
MDA-MB-435 melanoma = tested on: MDA-MB-435 melanoma
NCI-H322M lung = tested on: NCI-H322M lung
RPMI-8226 leukemia = tested on: RPMI-8226 leukemia
UACC-257 melanoma = tested on: UACC-257 melanoma
ACHN renal = tested on: ACHN renal
T-47D breast = tested on: T-47D breast
NCI/ADR-RES ovarian = tested on: NCI/ADR-RES ovarian
A549 NSCLC = tested on: A549 NSCLC
HCT-116 colon = tested on: HCT-116 colon
HL-60(TB) leukemia = tested on: HL-60(TB) leukemia
HT29 colon = tested on: HT29 colon
BT-549 breast = tested on: BT-549 breast
SNB-19 CNS = tested on: SNB-19 CNS
MALME-3M melanoma = tested on: MALME-3M melanoma
SN12C renal = tested on: SN12C renal
SK-MEL-28 melanoma = tested on: SK-MEL-28 melanoma
SF-295 CNS = tested on: SF-295 CNS
IGROV1 ovarian = tested on: IGROV1 ovarian
MDA-MB-468 breast = tested on: MDA-MB-468 breast
PC-3 prostate = tested on: PC-3 prostate
TK-10 renal = tested on: TK-10 renal
SR leukemia = tested on: SR leukemia
SK-MEL-5 melanoma = tested on: SK-MEL-5 melanoma
LOX IMVI melanoma = tested on: LOX IMVI melanoma
NCI-H522 lung = tested on: NCI-H522 lung
NCI-H460 NSCLC = tested on: NCI-H460 NSCLC
HOP-62 NSCLC = tested on: HOP-62 NSCLC
SK-OV-3 ovarian = tested on: SK-OV-3 ovarian
NCI-H23 lung = tested on: NCI-H23 lung
K-562 leukemia = tested on: K-562 leukemia
OVCAR-8 ovarian = tested on: OVCAR-8 ovarian
A498 renal = tested on: A498 renal
NCI-H226 lung = tested on: NCI-H226 lung
CCRF-CEM leukemia = tested on: CCRF-CEM leukemia
SF-268 CNS = tested on: SF-268 CNS
CAKI-1 renal = tested on: CAKI-1 renal
HOP-92 NSCLC = tested on: HOP-92 NSCLC
OVCAR-4 ovarian = tested on: OVCAR-4 ovarian
HCC-2998 colon = tested on: HCC-2998 colon
OVCAR-5 ovarian = tested on: OVCAR-5 ovarian
UO-31 renal = tested on: UO-31 renal
SK-MEL-2 melanoma = tested on: SK-MEL-2 melanoma
MCF7 breast = tested on: MCF7 breast
786-0 renal = tested on: 786-0 renal
MDA-MB-231 breast = tested on: MDA-MB-231 breast
MOLT-4 leukemia = tested on: MOLT-4 leukemia
KM12 colon = tested on: KM12 colon
UACC-62 melanoma = tested on: UACC-62 melanoma
SW-620 colon = tested on: SW-620 colon
COLO 205 colon = tested on: COLO 205 colon

## CN(CC(=O)N(Cc1ccc(C2CCCCC2)cc1)c1ccc(C(=O)O)c(O)c1)S(=O)(=O)c1c(F)c(F)c(F)c(F)c1F
DU-145 prostate
  GI50: 18.6 µM
  TGI: 32.6 µM
RXF 393 renal
  GI50: 1.83 µM
  TGI: 3.41 µM
M14 melanoma
  GI50: 2 µM
  TGI: 3.55 µM
HCT-15 colon
  GI50: 1.93 µM
  TGI: 3.36 µM
SF-539 CNS
  GI50: 2.01 µM
  TGI: 3.76 µM
U251 glioblastoma
  GI50: 1.85 µM
  TGI: 3.28 µM
OVCAR-3 ovarian
  GI50: 2.19 µM
  TGI: 4.24 µM
MDA-MB-435 melanoma
  GI50: 2.29 µM
  TGI: 4.28 µM
NCI-H322M lung
  GI50: 4.14 µM
  TGI: 12.6 µM
RPMI-8226 leukemia
  GI50: 1.79 µM
  TGI: 3.18 µM
UACC-257 melanoma
  GI50: 1.75 µM
  TGI: 3.18 µM
ACHN renal
  GI50: 12.4 µM
  TGI: 24.9 µM
T-47D breast
  GI50: 6.09 µM
  TGI: 18.6 µM
NCI/ADR-RES ovarian
  GI50: 15.3 µM
  TGI: 28.6 µM
A549 NSCLC
  GI50: 16.8 µM
  TGI: 30.6 µM
HCT-116 colon
  GI50: 1.83 µM
  TGI: 3.29 µM
HL-60(TB) leukemia
  GI50: 1.75 µM
  TGI: 3.14 µM
HT29 colon
  GI50: 2.29 µM
  TGI: 4.83 µM
BT-549 breast
  GI50: 2.1 µM
  TGI: 3.7 µM
SNB-19 CNS
  GI50: 1.99 µM
  TGI: 3.6 µM
MALME-3M melanoma
  GI50: 2.52 µM
  TGI: 4.96 µM
SN12C renal
  GI50: 2.09 µM
  TGI: 3.78 µM
SK-MEL-28 melanoma
  GI50: 2.58 µM
  TGI: 5.55 µM
SF-295 CNS
  GI50: 16.2 µM
  TGI: 29.8 µM
IGROV1 ovarian
  GI50: 1.79 µM
  TGI: 3.34 µM
MDA-MB-468 breast
  GI50: 2.18 µM
  TGI: 3.7 µM
PC-3 prostate
  GI50: 2.17 µM
  TGI: 3.96 µM
TK-10 renal
  GI50: 14.5 µM
  TGI: 27.6 µM
SR leukemia
  GI50: 1.79 µM
  TGI: 3.2 µM
SK-MEL-5 melanoma
  GI50: 4.6 µM
  TGI: 14.5 µM
LOX IMVI melanoma
  GI50: 1.93 µM
  TGI: 3.36 µM
NCI-H522 lung
  GI50: 1.88 µM
  TGI: 3.29 µM
NCI-H460 NSCLC
  GI50: 4.96 µM
  TGI: 16.9 µM
HOP-62 NSCLC
  GI50: 5.27 µM
  TGI: 16.2 µM
SK-OV-3 ovarian
  GI50: 4.48 µM
  TGI: 15.5 µM
NCI-H23 lung
  GI50: 6.96 µM
  TGI: 18.3 µM
K-562 leukemia
  GI50: 2.1 µM
  TGI: 3.56 µM
OVCAR-8 ovarian
  GI50: 1.92 µM
  TGI: 3.47 µM
A498 renal
  GI50: 15.1 µM
  TGI: 28.4 µM
NCI-H226 lung
  GI50: 2.6 µM
  TGI: 5.69 µM
CCRF-CEM leukemia
  GI50: 1.81 µM
  TGI: 3.21 µM
SF-268 CNS
  GI50: 1.94 µM
  TGI: 3.46 µM
CAKI-1 renal
  GI50: 2.44 µM
  TGI: 5.2 µM
HOP-92 NSCLC
  GI50: 2.65 µM
  TGI: 5.88 µM
OVCAR-4 ovarian
  GI50: 10.7 µM
  TGI: 22.6 µM
HCC-2998 colon
  GI50: 1.71 µM
  TGI: 3.1 µM
OVCAR-5 ovarian
  GI50: 19.1 µM
  TGI: 33.2 µM
UO-31 renal
  GI50: 12.5 µM
  TGI: 25 µM
SK-MEL-2 melanoma
  GI50: 2.02 µM
  TGI: 3.62 µM
MCF7 breast
  GI50: 1.88 µM
  TGI: 3.54 µM
786-0 renal
  GI50: 2.61 µM
  TGI: 7.22 µM
MDA-MB-231 breast
  GI50: 1.98 µM
  TGI: 3.47 µM
MOLT-4 leukemia
  GI50: 1.89 µM
  TGI: 3.32 µM
KM12 colon
  GI50: 4.16 µM
  TGI: 13.4 µM
UACC-62 melanoma
  GI50: 1.92 µM
  TGI: 3.36 µM
SW-620 colon
  GI50: 1.93 µM
  TGI: 3.37 µM
COLO 205 colon
  GI50: 2.86 µM
  TGI: 6.54 µM
